From ChEMBL document CHEMBL4346735, “Discovery and pharmacological evaluation of indole derivatives as potent and selective RORγt inverse agonist for multiple autoimmune conditions” (Bioorg Med Chem Lett, 2019)

Columns and labels:
[1] = molecular target: T1, Nuclear receptor ROR-gamma (Mus musculus, UniProt P51450); assay: Transrepression of RORgammat in Balb/c mouse splenocytes assessed as reduction in anti-CD3/anti-CD28 stimulated IL-17 level measured after 48 hrs in presence of anti-CD3/anti-CD28 by ELISA; assay type: cell-based
T1 sequence (P51450 whole entry): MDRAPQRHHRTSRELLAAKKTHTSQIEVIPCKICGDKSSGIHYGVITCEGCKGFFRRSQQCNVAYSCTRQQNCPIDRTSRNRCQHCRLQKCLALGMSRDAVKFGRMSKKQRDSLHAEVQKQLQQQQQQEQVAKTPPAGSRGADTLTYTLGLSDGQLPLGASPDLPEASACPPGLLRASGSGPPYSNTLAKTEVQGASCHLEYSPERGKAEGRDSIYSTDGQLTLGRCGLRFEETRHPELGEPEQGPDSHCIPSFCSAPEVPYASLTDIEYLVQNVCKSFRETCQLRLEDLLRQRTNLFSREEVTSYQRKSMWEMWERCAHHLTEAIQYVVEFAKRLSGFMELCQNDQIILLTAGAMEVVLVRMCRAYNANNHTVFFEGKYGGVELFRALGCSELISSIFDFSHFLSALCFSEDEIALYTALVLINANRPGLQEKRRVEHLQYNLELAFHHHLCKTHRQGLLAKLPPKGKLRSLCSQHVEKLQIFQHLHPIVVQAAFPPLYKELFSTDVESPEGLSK

Splenocyte = assay: Cytotoxicity against mouse splenocytes assessed as cell viability incubated for 6 days in presence of anti-CD4/anti-IFNgamma/TGFbeta/IL-6; assay type: cell-based; conditions: 144 h
[2] = Metabolic stability in mouse hepatocytes assessed as parent compound remaining after 60 mins; assay type: ADME, cell-based, Hepatocyte; conditions: read-out: Stability
[3] = Metabolic stability in human hepatocytes assessed as parent compound remaining after 60 mins; assay type: ADME, cell-based, Hepatocyte; conditions: read-out: Stability
[4] = Metabolic stability in simulated gastric fluid assessed as compound remaining after 30 mins; assay type: ADME; conditions: read-out: Stability
[5] = Metabolic stability in simulated gastric fluid assessed as compound remaining after 45 mins; assay type: ADME; conditions: read-out: Stability
[6] = Metabolic stability in simulated gastric fluid assessed as compound remaining after 60 mins; assay type: ADME; conditions: read-out: Stability
[7] = Metabolic stability in simulated intestinal fluid assessed as compound remaining after 15 mins; assay type: ADME; conditions: read-out: Stability
[8] = Metabolic stability in simulated intestinal fluid assessed as compound remaining after 30 mins; assay type: ADME; conditions: read-out: Stability
[9] = Metabolic stability in simulated intestinal fluid assessed as compound remaining after 60 mins; assay type: ADME; conditions: read-out: Stability
[10] = Metabolic stability in simulated intestinal fluid assessed as compound remaining after 2 hrs; assay type: ADME; conditions: read-out: Stability
[11] = Metabolic stability in simulated intestinal fluid assessed as compound remaining after 3 hrs; assay type: ADME; conditions: read-out: Stability
[12] = Plasma protein binding in mouse; assay type: ADME; conditions: read-out: PPB (converted)
[13] = Plasma protein binding in rat; assay type: ADME; conditions: read-out: PPB
[14] = Plasma protein binding in human; assay type: ADME; conditions: read-out: PPB
[15] = Cmax in mouse at 10 mg/kg, po; assay type: ADME, organism-based; set-up: dose 10 mg/kg, route oral; conditions: in vivo
[16] = Clearance in mouse at 3 mg/kg, iv; assay type: ADME, organism-based; conditions: in vivo
[17] = Half life in mouse at 3 mg/kg, iv; assay type: ADME, organism-based; conditions: in vivo
[18] = Oral bioavailability in mouse at 10 mg/kg; assay type: ADME, organism-based; conditions: in vivo
[19] = AUC in mouse skin at 10 mg/kg, po; assay type: ADME, organism-based, Zone of skin
[20] = AUC in mouse liver at 10 mg/kg, po; assay type: ADME, organism-based
Mus musculus [21] = assay: Immunosuppressive activity in MOG (35 to 55 residues)/pertussis toxin-induced experimental allergic encephalomyelitis C57BL/6J mouse model assessed as reduction in disease severity score at 30 mg/kg, po bid measured at day 21 relative to dexamethasone; assay type: functional; conditions: 504 h
Mus musculus [22] = assay: Immunosuppressive activity in MOG (35 to 55 residues)/pertussis toxin-induced experimental allergic encephalomyelitis C57BL/6J mouse model assessed as reduction in disease severity score at 10 mg/kg, po bid measured at day 23 relative to dexamethasone; assay type: functional; conditions: 552 h
[23] = molecular target: T2, Nuclear receptor ROR-alpha (Homo sapiens, UniProt P35398); assay: Inhibition of GAL4-DBD fused RORalpha LBD (unknown origin) expressed in HEK293T cells; assay type: cell-based
T2 sequence (P35398 whole entry): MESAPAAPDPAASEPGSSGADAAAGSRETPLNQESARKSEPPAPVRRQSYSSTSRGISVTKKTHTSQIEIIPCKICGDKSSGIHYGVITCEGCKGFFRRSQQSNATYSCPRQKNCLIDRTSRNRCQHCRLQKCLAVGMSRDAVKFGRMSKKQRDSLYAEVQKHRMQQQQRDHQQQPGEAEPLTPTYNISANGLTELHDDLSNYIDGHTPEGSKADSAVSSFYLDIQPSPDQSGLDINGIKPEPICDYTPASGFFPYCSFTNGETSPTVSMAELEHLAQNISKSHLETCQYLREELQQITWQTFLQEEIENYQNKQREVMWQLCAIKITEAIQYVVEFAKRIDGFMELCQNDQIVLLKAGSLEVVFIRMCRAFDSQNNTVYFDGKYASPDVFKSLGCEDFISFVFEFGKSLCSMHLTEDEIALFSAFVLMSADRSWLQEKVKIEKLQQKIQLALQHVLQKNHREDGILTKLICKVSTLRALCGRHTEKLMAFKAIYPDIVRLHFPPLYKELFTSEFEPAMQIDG

Mus musculus [24] = assay: Immunosuppressive activity in MOG (35 to 55 residues)/pertussis toxin-induced experimental allergic encephalomyelitis C57BL/6J mouse model assessed as reduction in IL-17F gene expression in spinal cord at 30 mg/kg, po bid measured at day 19 post MOG immunization/pertusis immunization relative to control; assay type: functional; conditions: 456 h
Mus musculus [25] = assay: Immunosuppressive activity in MOG (35 to 55 residues)/pertussis toxin-induced experimental allergic encephalomyelitis C57BL/6J mouse model assessed as reduction in IL-22 gene expression in spinal cord at 30 mg/kg, po bid measured at day 19 post MOG immunization/pertusis immunization relative to control; assay type: functional; conditions: 456 h
Mus musculus [26] = assay: Immunosuppressive activity in MOG (35 to 55 residues)/pertussis toxin-induced experimental allergic encephalomyelitis C57BL/6J mouse model assessed as reduction in CCR6 gene expression in spinal cord at 30 mg/kg, po bid measured at day 19 post MOG immunization/pertusis immunization relative to control; assay type: functional; conditions: 456 h
Mus musculus [27] = assay: Immunosuppressive activity in MOG (35 to 55 residues)/pertussis toxin-induced experimental allergic encephalomyelitis C57BL/6J mouse model assessed as reduction in IL-22 gene expression in spinal cord at 30 mg/kg, po bid measured at day 23 post MOG immunization/pertusis immunization relative to control; assay type: functional; conditions: 552 h
Mus musculus [28] = assay: Immunosuppressive activity in MOG (35 to 55 residues)/pertussis toxin-induced experimental allergic encephalomyelitis C57BL/6J mouse model assessed as reduction in CCR6 gene expression in spinal cord at 30 mg/kg, po bid measured at day 23 post MOG immunization/pertusis immunization relative to control; assay type: functional; conditions: 552 h
[29] = Metabolic stability in mouse liver microsomes assessed as parent compound remaining at 1 uM preincubated for 5 mins followed by NADPH addition after 30 mins by LC-MS/MS analysis; assay type: ADME, Microsome; conditions: read-out: Stability
[30] = Metabolic stability in human liver microsomes assessed as parent compound remaining at 1 uM preincubated for 5 mins followed by NADPH addition after 30 mins by LC-MS/MS analysis; assay type: ADME, Microsome; conditions: read-out: Stability

SMILES: O=C(O)c1ccc(-n2cc(C(=O)c3c(Cl)cccc3Cl)c3cccc(F)c32)cc1
- IC50 [1]: 500 to 503 nM
- Activity (Splenocyte): Non-Toxic
- remaining at 1 h [2]: 80%
- remaining at 1 h [3]: 59%
- remaining at 0.5 h [4]: 90%
- remaining at 0.75 h [5]: 93%
- remaining at 1 h [6]: 93%
- remaining at […] [7]: 100%
- remaining at 0.5 h [8]: 100%
- remaining at 1 h [9]: 100%
- remaining at 2 h [10]: 99%
- remaining at 3 h [11]: 100%
- fraction unbound [12]: 0.02
- fraction unbound [13]: 0.01
- fraction unbound [14]: < 0.03
- Cmax [15]: 6.2 µM
- clearance [16]: 23.4 mL/min/kg
- half-life [17]: 2.4 h
- bioavailability [18]: 72%
- AUC [19]: 11 µM·h
- AUC [20]: 400 µM·h
- inhibition in vivo at 30 mg/kg (Mus musculus [21]): 26%
- inhibition in vivo at 10 mg/kg (Mus musculus [22]): 31%
- IC50 [23]: > 10000 nM
- inhibition in vivo at 30 mg/kg (Mus musculus [24]): 70%
- inhibition in vivo at 30 mg/kg (Mus musculus [25]): 36%
- inhibition in vivo at 30 mg/kg (Mus musculus [26]): 60%
- inhibition in vivo at 30 mg/kg (Mus musculus [27]): 24%
- inhibition in vivo at 30 mg/kg (Mus musculus [28]): 36%
- remaining at 0.5 h, 1 µM [29]: 78%
- remaining at 0.5 h, 1 µM [30]: 88%
